Results from patent US20100267561A1, “HERBICIDAL PYRIDAZINONE DERIVATIVES” (priority 2007, published 2010).
Like-named read-outs stand apart in the source and are kept apart here.

Columns and labels:
Type in all cases: in vivo
[1] = system: common (oilseed) sunflower (Helianthus annuus); test: Test B pre-/postemergence plant response; details: Helianthus annuus, pre-emergence; Preemergence, 250 g ai/ha; scale 0 to 100; read-out: Plant response rating, Sunflower
Method in brief: (§1)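 Visual scoring from 0 (no effect) to 100 (complete control) against untreated controls was done 13 to 15 days after greenhouse treatment. Chemicals were formulated in a surfactant-containing non-phytotoxic solvent and applied to soil preemergence or to 1- to 4-leaf (2-18 cm) plants postemergence.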

[2] = system: large crabgrass (Digitaria sanguinalis); test: Test B pre-/postemergence plant response; details: Digitaria sanguinalis, read-out: Plant response rating, Crabgrass, Large; for pest or weed control at 31 g/ha: 31 g ai/ha, 100 complete control; for pest or weed control at 62 g/ha: 62 g ai/ha; for pest or weed control at 62 g/ha / pest or weed control at 125 g/ha / pest or weed control at 250 g/ha: scale 0 to 100; for pest or weed control at 125 g/ha: 125 g ai/ha; for pest or weed control at 250 g/ha: 250 g ai/ha
Method in brief: as §1

[3] = system: catchweed bedstraw (Galium aparine); test: Test B pre-/postemergence plant response; details: Galium aparine, pre-emergence, Preemergence, read-out: Plant response rating, Galium
Method in brief: as §1

[4] = system: wheat (Triticum aestivum); test: Test B pre-/postemergence plant response; details: Triticum aestivum, read-out: Plant response rating, Wheat; for plant injury at 31 g/ha: 31 g ai/ha, 100 complete control; for plant injury at 62 g/ha: 62 g ai/ha; for plant injury at 62 g/ha / plant injury at 125 g/ha / plant injury at 250 g/ha: scale 0 to 100; for plant injury at 125 g/ha: 125 g ai/ha; for plant injury at 250 g/ha: 250 g ai/ha
Method in brief: as §1

[5] = system: cocklebur (Xanthium strumarium); test: Test B pre-/postemergence plant response; details: Xanthium strumarium, read-out: Plant response rating, Cocklebur; for pest or weed control at 31 g/ha: 31 g ai/ha, 100 complete control; for pest or weed control at 62 g/ha: 62 g ai/ha; for pest or weed control at 62 g/ha / pest or weed control at 125 g/ha / pest or weed control at 250 g/ha: scale 0 to 100; for pest or weed control at 125 g/ha: 125 g ai/ha; for pest or weed control at 250 g/ha: 250 g ai/ha
Method in brief: as §1

[6] = system: yellow nutsedge (Cyperus esculentus); test: Test B pre-/postemergence plant response; details: Cyperus, read-out: Plant response rating, Nutsedge, Yellow; for pest or weed control at 31 g/ha: 31 g ai/ha, 100 complete control; for pest or weed control at 62 g/ha: 62 g ai/ha; for pest or weed control at 250 g/ha: 250 g ai/ha
Method in brief: as §1

[7] = system: johnsongrass (Sorghum halepense); test: Test B pre-/postemergence plant response; details: Sorghum halepense, read-out: Plant response rating, Johnsongrass; for pest or weed control at 31 g/ha: 31 g ai/ha, 100 complete control; for pest or weed control at 62 g/ha: 62 g ai/ha; for pest or weed control at 62 g/ha / pest or weed control at 125 g/ha / pest or weed control at 250 g/ha: scale 0 to 100; for pest or weed control at 125 g/ha: 125 g ai/ha; for pest or weed control at 250 g/ha: 250 g ai/ha
Method in brief: as §1

[8] = system: windgrass (Apera spica-venti); test: Test B postemergence plant response; details: Postemergence
Method in brief: (§2)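 Visual injury ratings on a 0–100 scale, where 100 means complete control, were made 13 to 15 days after postemergence treatment of greenhouse-grown plants at the 1- to 4-leaf stage.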

[9] = system: winter barley (Hordeum vulgare); test: Test B postemergence plant response; details: Postemergence
Method in brief: as §2

[10] = post-emergence, Postemergence, scale 0 to 100, 0 no effect
[11] = pre-emergence, Preemergence, 0 to 100 scale, 0 no effect
[12] = post-emergence, Postemergence, scale 0 to 100
[13] = pre-emergence, Preemergence, scale 0 to 100
[14] = 31 g ai/ha, scale 0 to 100, 0 no effect, 100 complete control

`Cc1cc(-c2ccc(C(F)(F)F)cc2)nn1-c1c(O)cnn(C)c1=O` [Compound 1, 5-hydroxy-2-methyl-4-[5-methyl-3-[4-(trifluoromethyl)phenyl]-1H-pyrazol-1-yl]-3(2H)-pyridazinone] showed a pest or weed control at 250 g/ha [1] of 60%, a pest or weed control at 31 g/ha [2, 10] of 80% and a pest or weed control at 62 g/ha ([2]; post-emergence, Postemergence) of 90%. The pest or weed control at 125 g/ha ([2]; post-emergence, Postemergence) was 100%, the pest or weed control at 250 g/ha ([2]; post-emergence, Postemergence) was 100% and the pest or weed control at 31 g/ha [2, 11] was 98%. It also gave a pest or weed control at 62 g/ha ([2]; pre-emergence, Preemergence) of 100%, a pest or weed control at 125 g/ha ([2]; pre-emergence, Preemergence) of 100% and a pest or weed control at 250 g/ha ([2]; pre-emergence, Preemergence) of 100%. The pest or weed control at 31 g/ha ([3]; 31 g ai/ha, 0 to 100 scale, 0 no effect, 100 complete control) was 0%, the pest or weed control at 62 g/ha ([3]; 62 g ai/ha, scale 0 to 100) was 0% and the pest or weed control at 125 g/ha ([3]; 125 g ai/ha, scale 0 to 100) was 0%. It also gave a pest or weed control at 250 g/ha ([3]; 250 g ai/ha, scale 0 to 100) of 0%, a plant injury at 31 g/ha [4, 10] of 45% and a plant injury at 62 g/ha ([4]; post-emergence, Postemergence) of 90%. For the same molecule, the plant injury at 125 g/ha ([4]; post-emergence, Postemergence) was 90%, the plant injury at 250 g/ha ([4]; post-emergence, Postemergence) was 95% and the plant injury at 31 g/ha [4, 11] was 35%. The plant injury at 62 g/ha ([4]; pre-emergence, Preemergence) was 45%, the plant injury at 125 g/ha ([4]; pre-emergence, Preemergence) was 90% and the plant injury at 250 g/ha ([4]; pre-emergence, Preemergence) was 95%. The pest or weed control at 31 g/ha [5, 10] was 0%, the pest or weed control at 62 g/ha ([5]; post-emergence, Postemergence) was 0% and the pest or weed control at 125 g/ha ([5]; post-emergence, Postemergence) was 0%. The pest or weed control at 250 g/ha ([5]; post-emergence, Postemergence) was 0%, the pest or weed control at 31 g/ha [5, 11] was 0% and the pest or weed control at 62 g/ha ([5]; pre-emergence, Preemergence) was 0%. It also gave a pest or weed control at 125 g/ha ([5]; pre-emergence, Preemergence) of 0%, a pest or weed control at 250 g/ha ([5]; pre-emergence, Preemergence) of 0% and a pest or weed control at 31 g/ha [6, 10] of 0%. It also gave a pest or weed control at 62 g/ha [6, 12] of 0%, a pest or weed control at 125 g/ha ([6]; post-emergence, Postemergence, 125 g ai/ha, scale 0 to 100) of 0% and a pest or weed control at 250 g/ha [6, 12] of 0%. For the same molecule, the pest or weed control at 31 g/ha [6, 11] was 0%, the pest or weed control at 62 g/ha [6, 13] was 0% and the pest or weed control at 250 g/ha [6, 13] was 0%. It also gave a pest or weed control at 31 g/ha [7, 10] of 60%, a pest or weed control at 62 g/ha ([7]; post-emergence, Postemergence) of 90% and a pest or weed control at 125 g/ha ([7]; post-emergence, Postemergence) of 100%. The pest or weed control at 250 g/ha ([7]; post-emergence, Postemergence) was 100%, the pest or weed control at 31 g/ha [7, 11] was 90% and the pest or weed control at 62 g/ha ([7]; pre-emergence, Preemergence) was 95%. For the same molecule, the pest or weed control at 125 g/ha ([7]; pre-emergence, Preemergence) was 100%, the pest or weed control at 250 g/ha ([7]; pre-emergence, Preemergence) was 100% and the “Plant response rating, Windgrass” value [8, 14] was 95. For the same molecule, the “Plant response rating, Windgrass” value ([8]; 62 g ai/ha, scale 0 to 100) was 100, the “Plant response rating, Windgrass” value ([8]; 125 g ai/ha, scale 0 to 100) was 100 and the “Plant response rating, Windgrass” value ([8]; 250 g ai/ha, scale 0 to 100) was 100. For the same molecule, the “Plant response rating, Barley” value [9, 14] was 0, the “Plant response rating, Barley” value ([9]; 62 g ai/ha, scale 0 to 100) was 0 and the “Plant response rating, Barley” value ([9]; 125 g ai/ha, scale 0 to 100) was 0. The “Plant response rating, Barley” value ([9]; 250 g ai/ha, scale 0 to 100) was 30.
